Source: patent publication US20140343249A1, “CELL KILLING FUSION PEPTIDE EXHIBITING TUMOR CELL-SPECIFIC NECROSIS INDUCTION AND TUMOR REGRESSION” (INDUSTRY-ACADEMIC COOPERATION FOUNDATION, CHOSUN UNIVERSITY, priority 2011, published 2014)
Where no end group is shown, it is not given here.

Experiments:
[1] = Movement activity of mouse after I.V. injection; type: in vivo; conditions: 10-30 min after I.V. injection of 75 ul (1 mM) into BalB/C mouse (about 20 g)
CT-26 tumor = experiment: In vivo screening of tumor regression activity, CT-26 tumor in BALB/C mice; set-up: key to In vivo Screening: NR: no regression (no decrease on the tumor volume); ND: not determined; conditions: for In vivo Screening: CT-26 tumor-bearing BALB/C mice, intravenous injection; for toxicity to the experimental animals: 100 ul (1 mM) intravenously 2-3 times (1 injection/day)
Procedure: In order to test tumor regression activity of the cell-killing CKP fusion peptides manufactured in Example 1, colon cell line, CT-26 (1.5×10^5 cells) was subcutaneously injected into dorsal skin of BALB/C mice of 6 weeks old to form tumor. After about 10 days, when the formed tumor volume reach to about 70±10 mm^3, the cancer cell specific CKP fusion peptide 100 ul (1 mM) was intravenously injected continuously 2-3 times (1 injection/day) into 3 mice, respectively, and after 10-13 days, change on the tumor tissue volume (length×wide^2×0.5) was observed.

[2] = test system: HeLa cells, cervical cancer cell line; experiment: Cell-killing activity of CKP peptide variants in HeLa, crystal violet staining; type: cell-based, human; conditions: 0-40 μM, 24 hours, peptides linked to PTD RRRRRRRRG
Text: In order to examine whether variants, in which some amino acids of the CKP peptide (SEQ ID NO: 21; KLLNLISKLF) of the present invention are substituted, also have cell-killing activity or not, CKP2 (1 amino acid was substituted) (SEQ ID NO: 22; KALNLISKLF), CKP3 (2 amino acids were substituted) (SEQ ID NO: 23; KLAALISKLF), CKP4 (2 amino acids were substituted) (SEQ ID NO: 24; KLLNLIAALF) and CKP5 (3 amino acids were substituted) (SEQ ID NO: 25; KALNLIAALF), which are CKP peptide variants in which 1-3 of amino acid residues linked to the known protein transduction domain (PTD) having RRRRRRRRG (RQ) sequence are substituted, were synthesized by the procedure described in Example 1. Further, in order to investigate influence of substitution at the leucine's repeat in the CKP, the CKP peptide variants, CKP6 (2nd and 3rd L were substituted to A) (SEQ ID NO: 26; KAANLISKLF), CKP7 (5th L was substituted to A) (SEQ ID NO: 27; KLLNAISKLF) and CKP8 (9th L was substituted to A) (SEQ ID NO: 28; KLLNLISKAF) linked to the RRRRRRRRG (RQ) sequence of the protein transduction domain (PTD) were synthesized by the procedure described in Example 1. In order to test cell-killing activity of the variants, a cervical cancer cell line, HeLa cells were cultured, and the culture medium was replaced with culture medium containing 0, 1, 5, 10, 15, 20, 30 and 40 μM CKP peptide, respectively, followed by further culturing for 24 hours. Living cells attached to the bottom were stained with 100 μl 0.5% crystal violet solution for 10 min, and washed off with distilled water or tap water to remove dead cells floating on the culture medium and also to destain the crystal violet solution. Then, the cells were observed by photography after placing the culture vessel under a fluorescent lamp box as depicted in FIG. 14. The living cells attached to the bottom and stained with the crystal violet were appeared blue color. […] Accordingly, it was identified that the Leucine sequence is a region playing a critical role in cell-killing activity of the CKP.

cells = conditions: in 10 minutes; cited from earlier work
[3] = Hepatocyte toxicity: ALT and AST released to blood; type: in vivo, mouse; conditions: blood of treated groups by the time versus untreated control group
Procedure: In order to confirm toxicity of the cell-killing CKP fusion peptide (CTD7:CKP), the amounts of alanine amino transferase (ALT) and aspartate amino transferase (AST) released to blood from hepatocytes of the damaged liver were measured and whether the hepatocytes was damaged or not was confirmed, so as to judge toxicity by the cell-killing CKP fusion peptide.

liver tissue = experiment: Toxicity in normal tissue (liver), histology; type: in vivo, mouse; conditions: intravenous injection, liver sections by the time
Procedure: In order to evaluate the degree of toxicity to the liver tissue, liver tissue section was prepared as described in Example 8, and pathologically observed in a normal mice group not treated with the peptide, a tumor-formed group intravenously injected with 0.85% normal saline and groups intravenously injected with the cell-killing CKP fusion peptide by the time.

splenocytes = experiment: Normal cell necrosis activity in splenocytes by XTT method; type: cell-based, mouse; conditions: splenocytes from BALB/c mice, 5, 10 and 20 μM, after 15 min
Text: In order to test cell necrosis inducing activity of the cell-killing CKP fusion peptide (CTD7:CKP) selected in Example 3 in normal cells, primary peritoneal macrophages and splenocytes were isolated from BALB/c mice.
In order to obtain splenocytes, complete RPMI media was put into a cell culture dish, male mouse spleen was isolated, and tissue thereof was crushed and centrifuged. Pellet was washed once with media and centrifuged again, and ACK lysis buffer (0.15 M NH4Cl, […], 0.01 M Na2EDTA, pH 7.2-7.4) was added thereto and centrifuged again. Then the pellet was cultured in 5% FBS-containing complete RPMI media for primary culture of the splenocytes, and the media was replaced with culture medium containing 5, 10 and 20 μM of the cell-killing CKP fusion peptide (CTD7:CKP), and after 15 min, cell necrosis inducing activity was confirmed by XTT method.

CGKRKGGKLLNLISKLF [CTD2:CKP, CGKRKGGKLLNLISKLF]
Movement Activities [1]: Normal

CGRDKGPDCKLLNLISKLF (Cell killing fusion peptide) [CTD12:CKP]
Movement Activities [1]: Normal

CNGRCGGKLLNLISKLF (Cell killing fusion peptide) [CTD1:CKP]
In vivo Screening (CT-26 tumor): NR
Movement Activities [1]: Slow

CRGDKGGKLLNLISKLF [CTD18:CKP, CRGDKGGKLLNLISKLF]
Movement Activities [1]: Slow

CRGDKGPDCKLLNLISKLF (Cell killing fusion peptide) [CTD15:CKP]
Movement Activities [1]: Normal

KAANLISKLF [CKP6]
cell-killing activity compared with the CKP peptide [2]: much decreased cell-killing activity

KALNLIAALF [CKP5]
cell-killing activity compared with the CKP peptide [2]: slightly decreased cell-killing activity

KALNLISKLF [CKP2]
cell-killing activity compared with the CKP peptide [2]: slightly decreased cell-killing activity

KLAALISKLF [CKP3]
cell-killing activity compared with the CKP peptide [2]: slightly decreased cell-killing activity

KLLNAISKLF [CKP7]
cell-killing activity compared with the CKP peptide [2]: much decreased cell-killing activity

KLLNLIAALF [CKP4]
cell-killing activity compared with the CKP peptide [2]: better cell-killing activity

KLLNLISKAF [CKP8]
cell-killing activity compared with the CKP peptide [2]: much decreased cell-killing activity

KLLNLISKLF (Cell Killing Peptide) [MTD]
cells killed (cell necrosis effect) (cells): ≥ 80%

KLLNLISKLFCGRDKGPDC (Cell killing fusion peptide) [CTD13:CKP]
Movement Activities [1]: Normal

KLLNLISKLFCGRDKRLYDC (Cell killing fusion peptide) [CTD14:CKP]
toxicity to the experimental animals (CT-26 tumor): dead
In vivo Screening (CT-26 tumor): Dead
Movement Activities [1]: Dead

KLLNLISKLFCRGDKGPDC (Cell killing fusion peptide) [CTD16:CKP]
Movement Activities [1]: Slow

KLLNLISKLFCRGDKRLYDC (Cell killing fusion peptide) [CTD17:CKP]
toxicity to the experimental animals (CT-26 tumor): toxicity removing the injected tail by necrosis
In vivo Screening (CT-26 tumor): Toxic
Movement Activities [1]: Slow

KLLNLISKLFGGCGKRK [CTD3:CKP, KLLNLISKLFGGCGKRK]
Movement Activities [1]: Normal

KLLNLISKLFGGCRGDK [CTD19:CKP, KLLNLISKLFGGCRGDK]
Movement Activities [1]: Normal

KLLNLISKLFGGLGDRGDR (Cell killing fusion peptide) [CTD10:CKP]
In vivo Screening (CT-26 tumor): NR

KLLNLISKLFGGRLLRLLR [CTD6:CKP, KLLNLISKLFGGRLLRLLR]
toxicity to the experimental animals (CT-26 tumor): toxicity removing the injected tail by necrosis
Movement Activities [1]: Normal

KLLNLISKLFGGRPARPAR [CTD8:CKP, KLLNLISKLFGGRPARPAR]
Movement Activities [1]: Slow

RLLRLLRGGKLLNLISKLF [CTD5:CKP, RLLRLLRGGKLLNLISKLF]
toxicity to the experimental animals (CT-26 tumor): toxicity removing the injected tail by necrosis
Movement Activities [1]: Slow

RPARPARGGKLLNLISKLF [CTD7:CKP, RPARPARGGKLLNLISKLF]
toxicity to the experimental animals (CT-26 tumor): no toxicity
ALT released to blood (liver damage index) [3]: no difference
AST released to blood (liver damage index) [3]: no difference
damage of liver tissue (histology) (liver tissue): any significant damage was not observed
cell-killing activity in normal cells (splenocytes): did not show significant cell-killing activity
Movement Activities [1]: Normal

WDLAWMFRLPVGKLLNLISKLF [CTD11:CKP]
Movement Activities [1]: Normal

WIFPWIQLKLLNLISKLF [CTD4:CKP, WIFPWIQLKLLNLISKLF]
toxicity to the experimental animals (CT-26 tumor): toxicity removing the injected tail by necrosis
Movement Activities [1]: Slow
